“And” between values parts separate entries of the source, which are not always exact repeats. Equal values may be shown once. “Also recorded” adds a separate entry of the source.
Tests used:
patients with PSE = experiment: IPS/PPR proof of concept study: suppression of PPR or reduction of SPR after single oral doses; assay type: in vivo, human; design: key to Maximum reduction of SPR: Overall reduction, Median: SPR steps (number of frequencies eliciting PPR), range 0-14; settings: for duration of maintained suppression of PPR: 2 individual patients; for PD effect of C7 / Effect maintained: reduction of SPR (≧3) / Effect maintained: suppression of PPR / Onset Time of reduction of SPR (≧3) / Onset Time of suppression of PPR: individual patients
Description: In patients with photosensitive epilepsy, a standardized photoparoxysmal response range (SPR) may be determined by performing the IPS with a standardized series of flash frequencies, for instance 14 frequencies from a range of 2 to 60 Hz. SPR is a dimensionless parameter and is defined as the number of frequencies (steps) between the lowest and highest frequencies, e.g. between 2 and 60 Hz, that consistently elicit a PPR. If 14 frequencies are tested, the minimum and maximum possible SPR values are 0 and 14. Zero means complete abolition of reactivity on any stimulation frequency, i.e. complete abolishment of the PPR. SPR is relatively stable for each patient and reflects the liability for seizures in daily life. The potential efficacy of an AED could be assessed by measuring hourly changes in the SPR after a single oral dose given to the PSE patients.
The study used the IPS/PPR paradigm. It was a multicenter, non-randomized, single blind, within-subject, placebo-controlled proof of concept study conducted to assess the effect of single oral doses of the compounded formula C-7 in suppressing the photoparoxysmal response (PPR) or reducing the standardized photoparoxysmal response range (SPR) in patients with PSE. Photosensitivity was detected using electroencephalography (EEG) measurements of subjects exposed to Intermittent Photic Stimulation (IPS). This EEG response was a photoparoxysmal response (PPR). For the purpose of the study, provocation of PPRs by IPS, not of seizures, was required. The SPR of each patient was the number of standard visual stimulation frequencies (in Hertz) that the patient was sensitive to, between the lower and upper thresholds. 14 frequencies were tested (from 2 to 60 Hertz). The time of onset and the duration of response (PPR suppression or SPR reduction) to the treatment with Compound C-7 in patients with PSE and the maximal reduction in SPR in patients with PSE were also evaluated.
Women of child-bearing potential (WOCBP) were asked to use acceptable methods of contraception. Patients with an SPR value of 3 or less at the screening and patients with no consistent PPR (less than 3 SPR steps difference between the two evaluations required) when stimulated by intermittent photic stimulation (IPS), as determined by comparison between screening and pre-dose Day 1, were excluded from the study. Furthermore subjects with history of status epilepticus and/or regular use of benzodiazepines as rescue medication, subjects with evidence or history of any medically significant cardiac, respiratory, hepatic, gastrointestinal, renal, hematologic, oncologic or progressive neurological disorder, requiring current medical intervention/therapy likely to have a significant impact on the outcome of this study, were also excluded.
There were three periods: a screening period for the assessment of patient's eligibility for participation in the study; a 3-day in hospital treatment period with single-blind dosing with placebo on days 1 and 3, and the compound of formula C-7 on day 2; and a study completion period consisting of a follow-up call by the medical investigator to the patient between day 10 and day 14 inclusive and a full study completion visit between day 29 and day 33 inclusive.
The dose of the compound of formula C-7 in Cohort studies I, II and III was 50, 100 and 15 mg respectively.

mouse = experiment: Oral bioavailability: in vivo orally active (audiogenic mouse test and/or MES test)
Description: The oral bioavailability was tested using the audiogenic mouse test (Audiogenic seizures, R. L. Collins; Chapter 14, pages: 347-372. In: Experimental Models of Epilepsy; By: Pupura, Penry, Tower, Woodbury, Walter, Raven Press, New York, 1972. Standard Book Number: 0-911216-26-X) and/or the MES test.

CC(C)c1cc2[nH]c(=O)n(NS(C)(=O)=O)c(=O)c2cc1-c1ccnn1C [Compound C-7, N-[7-Isopropyl-6-(2-methyl-2H-pyrazol-3-yl)-2,4-dioxo-1,4-dihydro-2H-quinazolin-3-yl]-methanesulfonamide]
magnitude of the post-treatment effect between doses (patients with PSE; 15, 50, 100 mg): dose dependent | PD effect compared to C-7 50 and 100 mg dose groups (patients with PSE; C-7 15 mg dose group): numerically markedly lower PD effect; also recorded: numerically lower but still measurable PD effect | proportion of subjects with suppression of PPR (patients with PSE; C-7 15 mg dose group): 33% | patients with complete suppression of PPR (patients with PSE; C-7 15 mg dose group (Cohort III), Day 2): 1 out of 3 and 1 of 3 | maintenance of SPR response and PPR suppression (patients with PSE; C-7 15 mg group): none of the patients maintained the SPR response; also recorded: neither the SPR response nor suppression of PPR was maintained | onset of suppression of PPR post dosing (patients with PSE; C-7 15 mg group, one patient, eye open only, not maintained): 2 h | Maximum reduction of SPR: Overall reduction, Mean (SD) (patients with PSE; C-7 15 mg, eye closed, n=3): 6.7 (1.15) | Maximum reduction of SPR: Overall reduction, Median (patients with PSE; C-7 15 mg, eye closed, n=3): 6.0 | Maximum reduction of SPR: Reduction from predose Day 2, Mean (SD) (patients with PSE; C-7 15 mg, eye closed, n=3): 5.0 (3.61) | Maximum reduction of SPR: Reduction from predose Day 2, Median (patients with PSE; C-7 15 mg, eye closed, n=3): 6.0 | Maximum reduction of SPR: Overall reduction, Mean (SD) (patients with PSE; C-7 15 mg, eye closure, n=3): 8.0 (1.73) | Maximum reduction of SPR: Overall reduction, Median (patients with PSE; C-7 15 mg, eye closure, n=3): 9.0 | Maximum reduction of SPR: Reduction from predose Day 2, Mean (SD) (patients with PSE; C-7 15 mg, eye closure, n=3): 7.3 (2.89) | Maximum reduction of SPR: Reduction from predose Day 2, Median (patients with PSE; C-7 15 mg, eye closure, n=3): 9.0 | Maximum reduction of SPR: Overall reduction, Mean (SD) (patients with PSE; C-7 15 mg, eyes open, n=3): 4.0 (3.46) | Maximum reduction of SPR: Overall reduction, Median (patients with PSE; C-7 15 mg, eyes open, n=3): 2.0 | Maximum reduction of SPR: Reduction from predose Day 2, Mean (SD) (patients with PSE; C-7 15 mg, eyes open, n=3): 3.0 (4.36) | Maximum reduction of SPR: Reduction from predose Day 2, Median (patients with PSE; C-7 15 mg, eyes open, n=3): 1.0 | AUECt on Day 2 compared to Day 1 (patients with PSE; C-7 50 mg and 100 mg dose groups, all eye conditions): significantly lower | proportion of subjects with suppression of PPR (patients with PSE; C-7 50 mg dose group): 50% | patients with complete suppression of PPR (patients with PSE; C-7 50 mg dose group (Cohort I), Day 2): 3 of 6 | patients with reductions of the SPR range by at least 3 steps in at least one eye condition (patients with PSE; C-7 50 mg dose group (Cohort I, 6 patients), Day 2): 6 patients | duration of maintained suppression of PPR (patients with PSE; C-7 50 mg group): 2 h and 7 h | Maximum reduction of SPR: Overall reduction, Mean (SD) (patients with PSE; C-7 50 mg, eye closed, n=6): 6.0 (2.37) | Maximum reduction of SPR: Overall reduction, Median (patients with PSE; C-7 50 mg, eye closed, n=6): 6.0 | Maximum reduction of SPR: Reduction from predose Day 2, Mean (SD) (patients with PSE; C-7 50 mg, eye closed, n=6): 5.0 (2.00) | Maximum reduction of SPR: Reduction from predose Day 2, Median (patients with PSE; C-7 50 mg, eye closed, n=6): 5.0 | Maximum reduction of SPR: Overall reduction, Mean (SD) (patients with PSE; C-7 50 mg, eye closure, n=6): 7.7 (3.01) | Maximum reduction of SPR: Overall reduction, Median (patients with PSE; C-7 50 mg, eye closure, n=6): 8.5 | Maximum reduction of SPR: Reduction from predose Day 2, Mean (SD) (patients with PSE; C-7 50 mg, eye closure, n=6): 6.5 (2.95) | Maximum reduction of SPR: Reduction from predose Day 2, Median (patients with PSE; C-7 50 mg, eye closure, n=6): 7.5 | Maximum reduction of SPR: Overall reduction, Mean (SD) (patients with PSE; C-7 50 mg, eyes open, n=6): 6.8 (2.99) | Maximum reduction of SPR: Overall reduction, Median (patients with PSE; C-7 50 mg, eyes open, n=6): 7.5 | Maximum reduction of SPR: Reduction from predose Day 2, Mean (SD) (patients with PSE; C-7 50 mg, eyes open, n=6): 4.8 (3.43) | Maximum reduction of SPR: Reduction from predose Day 2, Median (patients with PSE; C-7 50 mg, eyes open, n=6): 6.5 | proportion of subjects with suppression of PPR (patients with PSE; C-7 100 mg dose group): 75% | time to maximum reduction of SPR compared to the other 2 dose groups (patients with PSE; C-7 100 mg dose group): shorter | patients with complete suppression of PPR (patients with PSE; C-7 100 mg dose group (Cohort II), Day 2): 3 out of 4 and 3 of 4 | duration of maintained suppression of PPR (patients with PSE; C-7 100 mg group): 4 h and 3 h | Maximum reduction of SPR: Overall reduction, Mean (SD) (patients with PSE; C-7 100 mg, eye closed, n=4): 7.5 (2.38) | Maximum reduction of SPR: Overall reduction, Median (patients with PSE; C-7 100 mg, eye closed, n=4): 8.5 | Maximum reduction of SPR: Reduction from predose Day 2, Mean (SD) (patients with PSE; C-7 100 mg, eye closed, n=4): 6.5 (2.38) | Maximum reduction of SPR: Reduction from predose Day 2, Median (patients with PSE; C-7 100 mg, eye closed, n=4): 6.5 | Maximum reduction of SPR: Overall reduction, Mean (SD) (patients with PSE; C-7 100 mg, eye closure, n=4): 9.3 (2.22) | Maximum reduction of SPR: Overall reduction, Median (patients with PSE; C-7 100 mg, eye closure, n=4): 10.0 | Maximum reduction of SPR: Reduction from predose Day 2, Mean (SD) (patients with PSE; C-7 100 mg, eye closure, n=4): 8.3 (1.50) | Maximum reduction of SPR: Reduction from predose Day 2, Median (patients with PSE; C-7 100 mg, eye closure, n=4): 9.0 | Maximum reduction of SPR: Overall reduction, Mean (SD) (patients with PSE; C-7 100 mg, eyes open, n=4): 8.8 (2.50) | Maximum reduction of SPR: Overall reduction, Median (patients with PSE; C-7 100 mg, eyes open, n=4): 8.5 | Maximum reduction of SPR: Reduction from predose Day 2, Mean (SD) (patients with PSE; C-7 100 mg, eyes open, n=4): 7.0 (1.41) | Maximum reduction of SPR: Reduction from predose Day 2, Median (patients with PSE; C-7 100 mg, eyes open, n=4): 6.5 | maximum duration of maintenance of suppression of PPR (patients with PSE; C-7 50 and 100 mg dose groups): 7 h | duration of maintained SPR response (maximum duration of maintenance) (patients with PSE; C-7 50 and 100 mg dose groups, patients staying in responding status): 33 h | PD effect of C7 (patients with PSE; Cohort I, C-7 50 mg single oral dose): Suppression of PPR^e; also recorded: Reduction of SPR (≧3) | Effect maintained: reduction of SPR (≧3) (patients with PSE; Cohort I, C-7 50 mg): No (4×) and Yes (2×) | Effect maintained: suppression of PPR (patients with PSE; Cohort I, C-7 50 mg): No (2×) and Yes (2×) | Onset Time of reduction of SPR (≧3) (patients with PSE; Cohort I, C-7 50 mg): 2 h (2×) and 1 h (3×) | Onset Time of suppression of PPR (patients with PSE; Cohort I, C-7 50 mg): 2 h and 3 h and 4 h | PD effect of C7 (patients with PSE; Cohort II, C-7 100 mg single oral dose): Suppression of PPR; also recorded: Reduction of SPR (≧3) | Effect maintained: reduction of SPR (≧3) (patients with PSE; Cohort II, C-7 100 mg): No (3×) and Yes | Effect maintained: suppression of PPR (patients with PSE; Cohort II, C-7 100 mg): Yes (2×) and No | Onset Time of reduction of SPR (≧3) (patients with PSE; Cohort II, C-7 100 mg): 1 h (3×) and 2 h | Onset Time of suppression of PPR (patients with PSE; Cohort II, C-7 100 mg): 2 h (2×) and 3 h | PD effect of C7 (patients with PSE; Cohort III, C-7 15 mg single oral dose): Suppression of PPR^e; also recorded: Reduction of SPR (≧3) | Effect maintained: reduction of SPR (≧3) (patients with PSE; Cohort III, C-7 15 mg): No | Effect maintained: suppression of PPR (patients with PSE; Cohort III, C-7 15 mg): No | Onset Time of reduction of SPR (≧3) (patients with PSE; Cohort III, C-7 15 mg): 1 h | Onset Time of suppression of PPR (patients with PSE; Cohort III, C-7 15 mg): 2 h | patients with reductions of the SPR range by at least 3 steps in at least one eye condition (patients with PSE; Cohorts II and III (100 mg and 15 mg, 7 patients), Day 2): 7 patients | patients who showed suppression of PPR (Table 2 count) (patients with PSE; all dose groups, 13 patients, includes suppression noted already at 0 hours): 9 patients | patients with complete suppression of PPR (patients with PSE; all three dose groups (15, 50, 100 mg)): 7 of the 13 and 7 of 13 | impact of concomitant treatment with selected AEDs on the PD effect of C-7 (patients with PSE; valproate, lamotrigine, levetiracetam, topiramate, zonisamide as concomitant AEDs): did not appear to relevantly impact the PD effect | In vivo orally active (mouse): Yes

From patent publication US20140163050A1, “Use of 1H-quinazoline-2,4-diones” (priority 2011, published 2014)
